Experimental data as given in the NIST ThermoML archive (doi:10.1016/j.fluid.2015.03.021).
Numbers after ± are expanded uncertainties.

Assay: excess molar enthalpy (molar enthalpy of mixing); xn = mol fraction of the nth substance listed
Settings: 101 kPa, Liquid, Calvet calorimetry

OCCNCCO [diethanolamine] + O
298.15 K
Settings	excess molar enthalpy [kcal/mol]
x1 = 0.1002	-0.269 ± 0.011
x1 = 0.2057	-0.416 ± 0.017
x1 = 0.2992	-0.484 ± 0.0196
x1 = 0.3535	-0.49 ± 0.0198
x1 = 0.403	-0.487 ± 0.0198
x1 = 0.5035	-0.449 ± 0.0182
x1 = 0.6967	-0.303 ± 0.0124
x1 = 0.8826	-0.12 ± 0.00478

CN1CCNCC1 [N-methylpiperazine] + O
Settings	excess molar enthalpy [kcal/mol]
303.15 K, x1 = 0.0495	-0.475 ± 0.0194
303.15 K, x1 = 0.0997	-0.834 ± 0.0335
303.15 K, x1 = 0.2004	-1.18 ± 0.0478
303.15 K, x1 = 0.3006	-1.28 ± 0.0526
303.15 K, x1 = 0.3993	-1.18 ± 0.0478
303.15 K, x1 = 0.6	-0.841 ± 0.0335
303.15 K, x1 = 0.7973	-0.435 ± 0.0177
323.15 K, x1 = 0.3991	-1.12 ± 0.0454
323.15 K, x1 = 0.4012	-1.11 ± 0.0454
323.15 K, x1 = 0.4193	-1.09 ± 0.0454
323.15 K, x1 = 0.4994	-0.983 ± 0.0406
323.15 K, x1 = 0.5981	-0.823 ± 0.0335
323.15 K, x1 = 0.7019	-0.617 ± 0.0263
323.15 K, x1 = 0.8001	-0.42 ± 0.0172
323.15 K, x1 = 0.8964	-0.226 ± 0.0117
